Active and inactive are the calls of the source.
Assays:
[1] = molecular target: RNA-editing ligase 1, mitochondrial (Trypanosoma brucei brucei, UniProt P86926); assay: TbREL1 ligase inhibitors, dose response, biochemical, fluorescence, Trypanosoma brucei (AID 1117295); format: functional
[2] = molecular target: T1, Aryl hydrocarbon receptor (Homo sapiens, UniProt P35869); assay: Luminescence-based cell-based high throughput dose response assay for activators of the Aryl Hydrocarbon Receptor (AHR). [Related pubchem assays: 2796 (Primary screen (AHR activators in singlicate)), 2845 (Confirmation screen (AHR activators in triplicate)), 434939 (Counterscreen (PXR activators in triplicate)), 2804 (Summary (AHR activators))]; format: ADME
T1 sequence (P35869 whole entry): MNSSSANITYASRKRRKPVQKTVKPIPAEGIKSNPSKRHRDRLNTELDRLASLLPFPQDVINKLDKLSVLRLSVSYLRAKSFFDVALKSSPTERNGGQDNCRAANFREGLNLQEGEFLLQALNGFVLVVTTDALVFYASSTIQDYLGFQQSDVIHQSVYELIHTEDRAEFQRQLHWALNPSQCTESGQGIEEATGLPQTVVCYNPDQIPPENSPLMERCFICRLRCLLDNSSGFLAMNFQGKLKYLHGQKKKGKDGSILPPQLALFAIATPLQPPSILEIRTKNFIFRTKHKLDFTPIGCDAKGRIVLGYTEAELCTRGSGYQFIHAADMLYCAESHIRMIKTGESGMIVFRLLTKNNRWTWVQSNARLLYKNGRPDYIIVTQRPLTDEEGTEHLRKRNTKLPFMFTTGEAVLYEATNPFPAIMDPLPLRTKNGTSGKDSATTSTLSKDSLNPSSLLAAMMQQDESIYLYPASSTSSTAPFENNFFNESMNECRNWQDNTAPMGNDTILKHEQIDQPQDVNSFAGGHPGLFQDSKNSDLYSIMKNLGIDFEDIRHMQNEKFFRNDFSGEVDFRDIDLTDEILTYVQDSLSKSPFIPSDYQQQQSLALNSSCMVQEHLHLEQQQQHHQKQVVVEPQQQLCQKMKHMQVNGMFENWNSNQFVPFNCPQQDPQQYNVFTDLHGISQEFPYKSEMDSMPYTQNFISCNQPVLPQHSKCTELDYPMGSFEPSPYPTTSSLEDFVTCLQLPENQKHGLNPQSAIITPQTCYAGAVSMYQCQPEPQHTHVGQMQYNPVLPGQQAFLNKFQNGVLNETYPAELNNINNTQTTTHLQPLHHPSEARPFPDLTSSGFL

[3] = Late stage results for the probe development effort to identify inhibitors of Plasmodium falciparum gametocytes: Luminescence-based cell-based high throughput dose response assay to identify inhibitors of viability of late stage Plasmodium falciparum gametocytes.; format: functional
[4] = HepG2 cell cytotoxicity, dose response, cytotoxicity control, luminescence, dry powder, set 9 (AID 743358); format: functional, cell-based
[5] = Dose-response inhibition of insulin secretion in a rat insulinoma line at 5 mM glucose (AID 1117331); format: functional, cell-based; conditions: INS-1E
cells = format: functional, cell-based; conditions: INS-1E
[6] = molecular target: E3 ubiquitin-protein ligase Mdm2 (Homo sapiens, UniProt Q00987); assay: enhancers of MDM2-luciferase reporter signal, concentration-effect titration, project on inhibitors of MDM2 ubiquitin ligase, cellular assay, luminescent readout, 384-well plate format (AID 1394); format: functional;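 also: MDM2 E3 inhibitors raise luminescence so EC50 is for signal enhancement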
E3 ubiquitin-protein ligase Mdm2, sequence (Q00987 whole entry): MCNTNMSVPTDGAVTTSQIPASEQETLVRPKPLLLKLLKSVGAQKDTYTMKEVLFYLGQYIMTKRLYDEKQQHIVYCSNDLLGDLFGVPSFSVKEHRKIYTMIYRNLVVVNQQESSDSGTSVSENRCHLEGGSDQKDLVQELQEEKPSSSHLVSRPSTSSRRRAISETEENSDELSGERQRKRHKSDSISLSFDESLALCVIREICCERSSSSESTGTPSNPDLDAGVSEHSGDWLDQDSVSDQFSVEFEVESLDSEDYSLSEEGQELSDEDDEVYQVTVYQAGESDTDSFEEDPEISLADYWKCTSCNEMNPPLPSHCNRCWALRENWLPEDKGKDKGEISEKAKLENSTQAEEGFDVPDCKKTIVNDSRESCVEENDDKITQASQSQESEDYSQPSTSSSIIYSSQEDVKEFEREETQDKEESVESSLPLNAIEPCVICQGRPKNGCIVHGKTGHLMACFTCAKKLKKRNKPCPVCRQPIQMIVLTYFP

[7] = Luminescence Cell-Based Dose Retest to Confirm Inhibitors of Cancer Stem Cells. [Related pubchem assays (depositor defined):AID2717, AID2721]; format: functional; conditions: Homo sapiens
[8] = PAX5 activity inhibitors, dose response, selectivity assay for PAX8 inhibitor project, cell-based, plate reader, dry powder samples (AID 743047); format: functional;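 also: HEK293 cells carrying a Pax5 driven CD19 promoter luciferase reporter; potency of inhibitors that lower reporter luminescence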
[9] = cytotoxicity in OV-90 ovarian cancer cells, dose response, PAX8 inhibitor project, cell-based, plate reader, dry powder, SA8 (AID 743149); format: functional
[10] = IGROV1 ovarian cancer cell cytotoxicity, dose response, PAX8 inhibitor project, plate reader, dry powder samples (AID 743043); format: functional, cell-based; conditions: IGROV-1
[11] = cytotoxicity dependent on PAX8, dose response, cell-based, plate reader, dry powder (AID 743049); format: functional
[12] = cytotoxicity in COV434 cells, dose response, cytotoxicity control for PAX8 inhibitor project, cell-based, plate reader, dry powder, SA7 (AID 743145); format: functional
Paired box protein Pax-8 = Paired box protein Pax-8 (Homo sapiens, UniProt Q06710); assay: inhibitors of PAX8-driven TPO luciferase reporter, dose response, RMG-I cells, cherry-pick (AID 687027); format: functional, cell-based;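 also: luciferase reporter driven by Pax8 target thyroperoxidase promoter measured by SteadyGlo luminescence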
Paired box protein Pax-8, sequence (Q06710 whole entry): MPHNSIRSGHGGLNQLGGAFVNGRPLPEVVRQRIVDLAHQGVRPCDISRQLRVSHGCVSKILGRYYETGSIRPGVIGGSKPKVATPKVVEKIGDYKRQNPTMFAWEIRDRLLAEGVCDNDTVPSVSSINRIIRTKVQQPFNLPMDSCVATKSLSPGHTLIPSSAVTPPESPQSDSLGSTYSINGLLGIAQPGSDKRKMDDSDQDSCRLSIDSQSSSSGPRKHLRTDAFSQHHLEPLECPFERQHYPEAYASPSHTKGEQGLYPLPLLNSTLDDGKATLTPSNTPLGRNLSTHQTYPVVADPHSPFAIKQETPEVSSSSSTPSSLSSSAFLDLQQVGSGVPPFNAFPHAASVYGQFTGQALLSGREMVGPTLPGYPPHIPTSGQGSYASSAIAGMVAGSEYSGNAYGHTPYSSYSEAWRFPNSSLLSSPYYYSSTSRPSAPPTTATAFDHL

[13] = PAX2 cell-based inhibition, dose response, selectivity assay for PAX8 inhibitor project, plate reader, dry powder samples (AID 743048); format: functional;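 also: HEK293 cells carrying a WT1 promoter luciferase reporter driven by expressed Pax2; potency is for inhibition of Pax2 driven reporter signal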
[14] = molecular target: Ubiquitin carboxyl-terminal hydrolase BAP1 (Homo sapiens, UniProt Q92560); assay: BAP1 deubiquitinase inhibitors, dose response, biochemical (AID 714); format: functional
Ubiquitin carboxyl-terminal hydrolase BAP1, sequence (Q92560 whole entry): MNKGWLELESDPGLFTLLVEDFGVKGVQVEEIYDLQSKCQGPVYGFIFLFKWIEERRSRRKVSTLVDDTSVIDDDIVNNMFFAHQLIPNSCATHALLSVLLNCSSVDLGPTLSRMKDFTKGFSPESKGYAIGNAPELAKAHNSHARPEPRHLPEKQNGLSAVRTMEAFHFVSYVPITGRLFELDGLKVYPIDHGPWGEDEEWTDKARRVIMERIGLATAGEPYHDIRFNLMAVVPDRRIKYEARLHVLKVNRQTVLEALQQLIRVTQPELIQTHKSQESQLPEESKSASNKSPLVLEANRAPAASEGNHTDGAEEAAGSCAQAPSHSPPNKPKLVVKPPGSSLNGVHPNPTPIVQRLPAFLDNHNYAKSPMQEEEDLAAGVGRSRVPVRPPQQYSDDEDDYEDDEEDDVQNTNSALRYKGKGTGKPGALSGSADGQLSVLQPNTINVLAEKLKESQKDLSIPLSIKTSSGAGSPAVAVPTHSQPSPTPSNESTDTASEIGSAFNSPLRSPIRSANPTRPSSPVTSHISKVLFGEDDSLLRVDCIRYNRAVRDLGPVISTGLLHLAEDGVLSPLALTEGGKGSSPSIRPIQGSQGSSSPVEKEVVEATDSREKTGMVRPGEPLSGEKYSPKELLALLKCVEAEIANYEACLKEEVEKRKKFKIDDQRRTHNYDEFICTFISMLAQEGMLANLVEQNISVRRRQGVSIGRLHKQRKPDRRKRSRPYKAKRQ

[15] = cytotoxicity toward HCT116 cells – cell-based, CellTiter-Glo luminescence, IC50, dose response (AID 1117332); format: functional; conditions: HCT-116
[16] = control 3'UTR Renilla luciferase suppression, dose response, counter-screen for Shn3 inhibitor project, cell-based, Clone20-Shn3RL, cherry-picked (AID 624133); format: functional
[17] = Shn3 3'UTR reporter inhibitors, dose response, cell-based, Clone20 osteoblasts, firefly luciferase, cherry-picked (AID 624132); format: functional;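 also: firefly luciferase luminescence from reporter carrying the Shn3 3'UTR in osteoblasts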
[18] = HeLa 2N DNA content increase, dose response, cell-based, IC50 (AID 1117349); format: functional
[19] = HepG2 cell cytotoxicity, dose response, cytotoxicity control for Shn3 inhibitor project, CellTiter-Glo, cherry-picked (AID 624134); format: functional, cell-based
[20] = HCT116 cell viability decrease, GSK3B pretreatment – CellTiter-Glo, IC50, dose response (AID 1117339); format: functional; conditions: HCT-116
[21] = molecular target: Glucose-6-phosphate 1-dehydrogenase (Homo sapiens, UniProt P11413); assay: human G6PD enzyme inhibitors, dose response, selectivity assay for P. falciparum G6PD inhibitor project, biochemical, fluorescence (AID 504792); format: functional
Glucose-6-phosphate 1-dehydrogenase, sequence (P11413 whole entry): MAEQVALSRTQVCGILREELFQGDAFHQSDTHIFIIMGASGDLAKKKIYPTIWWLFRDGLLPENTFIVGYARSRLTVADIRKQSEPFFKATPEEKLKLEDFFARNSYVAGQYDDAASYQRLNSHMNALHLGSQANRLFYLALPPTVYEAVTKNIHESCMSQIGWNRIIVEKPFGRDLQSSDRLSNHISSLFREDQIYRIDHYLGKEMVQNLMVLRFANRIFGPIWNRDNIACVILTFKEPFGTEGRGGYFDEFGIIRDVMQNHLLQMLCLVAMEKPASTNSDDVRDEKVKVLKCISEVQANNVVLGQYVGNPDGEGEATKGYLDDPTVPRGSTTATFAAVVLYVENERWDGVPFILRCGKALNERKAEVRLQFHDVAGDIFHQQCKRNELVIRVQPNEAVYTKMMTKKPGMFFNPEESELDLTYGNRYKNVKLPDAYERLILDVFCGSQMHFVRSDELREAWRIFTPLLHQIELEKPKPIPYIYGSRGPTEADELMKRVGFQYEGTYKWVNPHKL

[22] = HeLa 4N DNA content increase, dose response, cell-based, IC50 (AID 1117351); format: functional
[23] = cytotoxicity toward Colo320 cells – cell-based, CellTiter-Glo luminescence, IC50, dose response (AID 1117334); format: functional; conditions: COLO 320
[24] = CellTiter-Glo luminescent dose response of DLD-1 viability loss (AID 1117352); format: functional
[25] = molecular target: Peroxisome proliferator-activated receptor gamma/Nuclear receptor corepressor 2 (Homo sapiens, UniProt P37231+Q9Y618); assay: Counterscreen for NR2E3 inverse agonists: TR-FRET-based biochemical high throughput dose response assay to identify inverse agonists of the interaction between peroxisome proliferator-activated receptor gamma (PPARg) and nuclear receptor co-repressor 2 (NCOR2).; format: functional
[26] = molecular target: Photoreceptor-specific nuclear receptor (Homo sapiens, UniProt Q9Y5X4); assay: NR2E3 inverse agonists, dose response, biochemical, TR-FRET (AID 463256); format: functional
Photoreceptor-specific nuclear receptor, sequence (Q9Y5X4 whole entry): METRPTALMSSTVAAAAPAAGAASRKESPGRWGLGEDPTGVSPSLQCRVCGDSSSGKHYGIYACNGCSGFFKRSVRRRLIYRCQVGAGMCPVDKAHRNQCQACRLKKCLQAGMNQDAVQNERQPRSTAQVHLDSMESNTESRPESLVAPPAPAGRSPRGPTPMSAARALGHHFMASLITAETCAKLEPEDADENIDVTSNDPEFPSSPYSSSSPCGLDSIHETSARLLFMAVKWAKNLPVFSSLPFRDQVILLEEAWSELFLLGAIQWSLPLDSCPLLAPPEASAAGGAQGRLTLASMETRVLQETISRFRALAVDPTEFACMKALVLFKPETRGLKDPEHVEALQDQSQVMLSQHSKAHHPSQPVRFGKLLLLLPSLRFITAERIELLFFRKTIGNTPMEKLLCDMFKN

[27] = molecular target: Peroxisome proliferator-activated receptor gamma/Nuclear receptor coactivator 2 (Homo sapiens, UniProt P37231); assay: (§1) TR-FRET dose response biochemical High Throughput Screening assay for agonists of the steroid receptor coactivator 2 (SRC-2) recruitment by the peroxisome proliferator-activated receptor gamma (PPAR gamma): non-selective agonists. [Related pubchem assays: 1297, 1032 ]; format: functional
[28] = molecular target: Peroxisome proliferator-activated receptor gamma/Nuclear receptor coactivator 1 (Homo sapiens, UniProt P37231); assay: as §1, with “1 (SRC-1)” for “2 (SRC-2)”, “assays (depositor defined):AID1300, AID1808, AID504735, AID631]” for “assays: 1297, 1032 ]”; format: protein assay
[29] = molecular target: Peroxisome proliferator-activated receptor gamma/Nuclear receptor coactivator 3 (Homo sapiens, UniProt P37231); assay: as §1, with “3 (SRC-3)” for “2 (SRC-2)”, “1301 (Confirmation screen.), 1048 (Primary screen.)]” for “1297, 1032 ]”; format: functional
[30] = molecular target: Sphingosine 1-phosphate receptor 2 (Homo sapiens, UniProt O95136); assay: Dose Response Cell Based Assay for Antagonists of the S1P2 Receptor. [Related pubchem assays: 856, 736 ]; format: functional
Sphingosine 1-phosphate receptor 2, sequence (O95136 whole entry): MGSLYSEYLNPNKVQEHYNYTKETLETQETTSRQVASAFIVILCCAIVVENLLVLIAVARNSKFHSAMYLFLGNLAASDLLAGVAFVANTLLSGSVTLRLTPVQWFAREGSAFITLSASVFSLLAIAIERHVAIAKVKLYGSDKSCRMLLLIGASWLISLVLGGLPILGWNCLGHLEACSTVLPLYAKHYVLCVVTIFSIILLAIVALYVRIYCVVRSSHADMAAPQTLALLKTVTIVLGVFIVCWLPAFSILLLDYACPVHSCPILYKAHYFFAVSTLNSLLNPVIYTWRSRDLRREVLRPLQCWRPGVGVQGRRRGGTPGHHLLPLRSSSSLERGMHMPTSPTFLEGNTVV

[31] = molecular target: Voltage-gated inwardly rectifying potassium channel KCNH2 (Homo sapiens, UniProt Q12809); assay: hERG protection from proarrhythmic block, potency, dose response, cell-based, thallium flux (AID 2121); format: ADME
Voltage-gated inwardly rectifying potassium channel KCNH2, sequence (Q12809 whole entry): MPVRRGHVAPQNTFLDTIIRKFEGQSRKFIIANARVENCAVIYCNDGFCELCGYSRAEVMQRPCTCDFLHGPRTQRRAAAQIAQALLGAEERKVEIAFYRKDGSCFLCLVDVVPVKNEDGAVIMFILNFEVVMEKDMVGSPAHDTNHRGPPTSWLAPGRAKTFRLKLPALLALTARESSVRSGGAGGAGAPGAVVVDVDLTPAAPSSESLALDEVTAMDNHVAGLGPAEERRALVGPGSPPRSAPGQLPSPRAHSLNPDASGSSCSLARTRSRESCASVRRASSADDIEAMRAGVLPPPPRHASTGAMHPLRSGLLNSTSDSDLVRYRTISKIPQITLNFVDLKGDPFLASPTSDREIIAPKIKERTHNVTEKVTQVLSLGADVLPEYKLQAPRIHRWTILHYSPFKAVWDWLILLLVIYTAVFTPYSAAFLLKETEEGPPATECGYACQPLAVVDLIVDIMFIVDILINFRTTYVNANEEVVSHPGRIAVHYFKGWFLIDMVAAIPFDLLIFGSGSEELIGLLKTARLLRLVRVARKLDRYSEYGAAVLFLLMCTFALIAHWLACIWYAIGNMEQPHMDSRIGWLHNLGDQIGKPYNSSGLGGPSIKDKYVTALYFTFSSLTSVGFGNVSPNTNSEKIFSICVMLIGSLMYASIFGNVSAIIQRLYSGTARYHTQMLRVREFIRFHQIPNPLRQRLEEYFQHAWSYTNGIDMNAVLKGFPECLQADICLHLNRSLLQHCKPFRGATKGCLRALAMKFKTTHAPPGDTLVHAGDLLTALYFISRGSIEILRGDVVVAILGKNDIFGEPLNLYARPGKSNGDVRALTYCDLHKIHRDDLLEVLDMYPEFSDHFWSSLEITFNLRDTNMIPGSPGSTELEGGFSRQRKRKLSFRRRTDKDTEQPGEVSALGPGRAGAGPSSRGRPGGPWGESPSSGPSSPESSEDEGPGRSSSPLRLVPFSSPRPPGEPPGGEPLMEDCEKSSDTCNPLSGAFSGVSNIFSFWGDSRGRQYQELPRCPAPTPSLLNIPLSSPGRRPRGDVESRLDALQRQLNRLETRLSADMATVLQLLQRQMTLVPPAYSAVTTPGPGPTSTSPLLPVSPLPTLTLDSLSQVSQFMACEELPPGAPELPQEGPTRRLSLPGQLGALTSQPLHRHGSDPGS

RNA-editing ligase 1, mitochondrial, sequence (P86926 whole entry): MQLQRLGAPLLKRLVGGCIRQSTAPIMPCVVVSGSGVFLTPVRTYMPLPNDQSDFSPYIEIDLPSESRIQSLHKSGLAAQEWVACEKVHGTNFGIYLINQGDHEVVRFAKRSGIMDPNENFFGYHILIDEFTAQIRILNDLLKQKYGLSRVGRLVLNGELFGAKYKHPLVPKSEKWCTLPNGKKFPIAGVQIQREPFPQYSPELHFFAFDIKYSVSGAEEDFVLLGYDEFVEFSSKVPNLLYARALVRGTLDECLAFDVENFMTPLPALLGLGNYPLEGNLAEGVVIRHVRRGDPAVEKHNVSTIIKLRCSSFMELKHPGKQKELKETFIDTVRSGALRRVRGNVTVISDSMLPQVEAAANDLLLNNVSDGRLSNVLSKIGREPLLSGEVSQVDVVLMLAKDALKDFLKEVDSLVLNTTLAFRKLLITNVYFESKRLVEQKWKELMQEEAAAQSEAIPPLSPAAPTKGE

## COc1cccc(C(=O)NCCS(=O)(=O)NC(C)CCc2ccccc2)c1 (stereo not drawn)
[1]
  IC50: > 96.6 µM (inactive)

## O=C(Nc1cccc(Cl)c1)c1cccnn1
[2]
  EC50: 0.583 µM (active)

## O=C(NC1=NCCS1)c1cn(-c2ccccc2)nc1-c1cccnc1
[3]
  IC50: > 74.4 µM (inactive)

## CN1c2ccc(-c3cccc(F)c3)cc2[C@H]2[C@H](CCN2C(=O)Nc2ccccc2F)[C@H]1CO
[4]
  AC50: > 47 µM (inactive)

## C#CCOC(C(=O)OCCN(C)C)(c1ccccc1)c1ccccc1
[5]
  IC50: 9.26 µM (inactive)
cells
  IC50: 9.67 µM (inactive)

## N#Cc1c(N)nc2c(c1-c1cccc(O)c1)CCCCCC2
[6]
  EC50: 13.8 µM (not active)
[7]
  AC50: 5.01 µM (active)

## C[C@H](CO)N1C[C@H](C)[C@@H](CN(C)Cc2ccc(C(F)(F)F)cc2)OCCCC[C@H](C)Oc2ccc(NS(=O)(=O)c3ccc(F)cc3)cc2C1=O
[8]
  AC50: 24.3 µM (active)
[9]
  AC50: 68.3 µM (active)
[10]
  AC50: 40.5 µM (active)
[11]
  AC50: 37.7 µM (active)
[12]
  AC50: 55.1 µM (active)
Paired box protein Pax-8
  AC50: 6.28 µM (active)
[13]
  AC50: 18.8 µM (active)

## CSc1nc2c(cnn2-c2ccc(C)c(C)c2)c(=O)[nH]1
[14]
  IC50: > 50 µM (not active)

## O=C(Nc1ccc([N+](=O)[O-])cc1Cl)c1cc(Cl)ccc1O [NICLOSAMIDE]
[15]
  IC50: 0.00144 µM (active)
[16]
  AC50: 0.837 µM (active)
[17]
  AC50: 3 µM (active)
[18]
  IC50: > 10 µM (inactive)
[19]
  AC50: 1.62 µM (active)
[20]
  IC50: 0.00295 µM (active)
[21]
  IC50: > 80 µM (inactive)
[22]
  IC50: > 10 µM (inactive)
[23]
  IC50: 0.00826 µM (active)
[24]
  IC50: 0.00349 µM (active)

## Cc1cc2nc(-c3ccc(SCC(=O)Nc4ccc(S(=O)(=O)N5CCCC5)cc4)nc3)[nH]c2cc1C
[25]
  IC50: 2.07 µM (active)
[26]
  IC50: > 39.8 µM (not active)
[27]
  EC50: 11.1 µM (not active)
[28]
  EC50: 11.6 µM (inactive)
[29]
  EC50: > 79.4 µM (not active)

## O=C(O)c1sc2cc(C(F)(F)F)cnc2c1-c1cccs1
[30]
  IC50: > 30 µM (not active)

## COc1ccc(C(=O)CC(=O)C(=O)Nc2ccccc2OC)cc1
[31]
  EC50: 8.33 µM (active)
